Measured values reported in patent US6358885B1, “Substituted phenylheterocyclic herbicides” (Mississippi State University, priority 1992, dated 2002).

Tests used:
[1] = tested on: pigweed; test: Test C preemergence/postemergence greenhouse plant response rating 0 to 100; format: in vivo, Amaranthusretroflexus; details: POSTEMERGENCE; for Plant response rating Pigweed: 0 to 100 scale
Method in brief: (§1)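 Compounds in non-phytotoxic solvent went onto sandy loam before emergence (seeded one day earlier) or onto plants at the one-to-four leaf stage. Duck salad was treated via flood water (~2.5 cm, maintained) over silt loam.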

[2] = tested on: sugar beet; test: as above; format: in vivo, Beta vulgaris; details: POSTEMERGENCE; for Plant response rating, Sugar beet: 0 to 100 scale
Method in brief: as §1

[3] = tested on: wild buckwheat; test: Test B preemergence/postemergence greenhouse plant response rating 0 to 10; format: in vivo, Polygonum convolvulus; details: 0 to 10 scale
Method in brief: (§2)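 Planted seeds are treated preemergence with compound dissolved in a non-phytotoxic solvent, while postemergence applications go onto plants of two to eighteen cm. Plants stay in the greenhouse twelve to sixteen days and are then rated visually relative to controls.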

[4] = tested on: velvetleaf; test: Test C preemergence/postemergence greenhouse plant response rating 0 to 100; format: in vivo, Abutilon theophrasti; details: POSTEMERGENCE; for Plant response rating, Velvetleaf: 0 to 100 scale
Method in brief: as §1

[5] = tested on: bedstraw; test: as above; format: in vivo, Galium aparine; details: POSTEMERGENCE; for Plant response rating, Bedstraw: 0 to 100 scale
Method in brief: as §1

[6] = tested on: chickweed; test: as above; format: in vivo, Stellaria media; details: POSTEMERGENCE; for Plant response rating, Chickweed: 0 to 100 scale
Method in brief: as §1

[7] = tested on: corn; test: as above; format: in vivo, Zea mays; details: POSTEMERGENCE; for Plant response rating, Corn: 0 to 100 scale
Method in brief: as §1

[8] = tested on: duck salad; test: Test C flood test plant response rating 0 to 100; format: in vivo, Heteranthera limosa; details: for Plant response rating Duck salad: flood test species listed under POSTEMERGENCE, 0 to 100 scale
Method in brief: as §1

[9] = tested on: soybean; test: Test B preemergence/postemergence greenhouse plant response rating 0 to 10; format: in vivo, Glycine max; details: 0 to 10 scale
Method in brief: as §2

[10] = tested on: cotton; test: Test C preemergence/postemergence greenhouse plant response rating 0 to 100; format: in vivo, Gossypium hirsutum; details: POSTEMERGENCE; for Plant response rating, Cotton: 0 to 100 scale
Method in brief: as §1

[11] = tested on: cocklebur; test: Test B preemergence/postemergence greenhouse plant response rating 0 to 10; format: in vivo, Xanthium pensylvanicum; details: 0 to 10 scale
Method in brief: as §2

[12] = tested on: rice; test: Test C flood test plant response rating 0 to 100; format: in vivo, Oryza sativa; details: for Plant response rating Rice Japonica: flood test species listed under POSTEMERGENCE, 0 to 100 scale
Method in brief: (§3)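 Compounds in non-phytotoxic solvent applied preemergence to sandy loam one day after planting, postemergence at the 1–4 leaf stage, or to ~2.5 cm floodwater over silt loam.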

[13] = tested on: umbrella sedge; test: Test C flood test plant response rating 0 to 100; format: in vivo, Cyperus difformis; details: for Plant response rating Umbrella sedge: flood test species listed under POSTEMERGENCE, 0 to 100 scale
Method in brief: as §3

[14] = tested on: blackgrass; test: Test C preemergence/postemergence greenhouse plant response rating 0 to 100; format: in vivo, Alopecurus myosuroides; details: POSTEMERGENCE; for Plant response rating, Blackgrass: 0 to 100 scale
Method in brief: as §1

[15] = tested on: rice; test: Test B preemergence/postemergence greenhouse plant response rating 0 to 10; format: in vivo, Oryza sativa; details: 0 to 10 scale
Method in brief: as §2

[16] = tested on: purple nutsedge; test: as above; format: in vivo, Cyperus rotundus; details: 0 to 10 scale
Method in brief: as §2

[17] = tested on: giant foxtail; test: Test C preemergence/postemergence greenhouse plant response rating 0 to 100; format: in vivo, Setaria faberii; details: POSTEMERGENCE; for Plant response rating, Giant foxtail: 0 to 100 scale
Method in brief: as §1

[18] = POSTEMERGENCE section, flood test, Rate 4 g/ha
[19] = Rate 16 g/ha, under POSTEMERGENCE head (flood test species)

C#CC(C)N1C(=O)COc2cc(F)c(-c3nn4c(c3Cl)CCCC4)cc21 (stereo not shown) [Compound 50]
Plant response rating Pigweed ([1]; 62 g/ha): 100 | Plant response rating Pigweed ([1]; 250 g/ha): 100 | Plant response rating (0 to 100), Pigweed ([1]; Rate 1 g/ha): 85 | Plant response rating (0 to 100), Pigweed ([1]; Rate 4 g/ha): 100 | Plant response rating (0 to 100), Pigweed ([1]; Rate 16 g/ha): 100 | Plant response rating, Sugar beet ([2]; 62 g/ha): 100 | Plant response rating, Sugar beet ([2]; 250 g/ha): 100 | Plant response rating (0 to 100), Sugar beet ([2]; Rate 1 g/ha): 20 | Plant response rating (0 to 100), Sugar beet ([2]; Rate 4 g/ha): 100 | Plant response rating (0 to 100), Sugar beet ([2]; Rate 16 g/ha): 100 | Plant response rating, Wild buckwheat ([3]; POSTEMERGENCE, Rate 10 g/ha): 10 | Plant response rating, Wild buckwheat ([3]; POSTEMERGENCE, Rate 50 g/ha): 10 | Plant response rating, Wild buckwheat ([3]; PREEMERGENCE, Rate 50 g/ha): 7 | Plant response rating, Velvetleaf ([4]; 62 g/ha): 100 | Plant response rating, Velvetleaf ([4]; 250 g/ha): 100 | Plant response rating (0 to 100), Velvetleaf ([4]; Rate 1 g/ha): 70 | Plant response rating (0 to 100), Velvetleaf ([4]; Rate 4 g/ha): 90 | Plant response rating (0 to 100), Velvetleaf ([4]; Rate 16 g/ha): 100 | Plant response rating, Bedstraw ([5]; 62 g/ha): 100 | Plant response rating, Bedstraw ([5]; 250 g/ha): 100 | Plant response rating (0 to 100), Bedstraw ([5]; Rate 1 g/ha): 10 | Plant response rating (0 to 100), Bedstraw ([5]; Rate 4 g/ha): 20 | Plant response rating (0 to 100), Bedstraw ([5]; Rate 16 g/ha): 60 | Plant response rating, Chickweed ([6]; 62 g/ha): 100 | Plant response rating, Chickweed ([6]; 250 g/ha): 100 | Plant response rating (0 to 100), Chickweed ([6]; Rate 1 g/ha): 20 | Plant response rating (0 to 100), Chickweed ([6]; Rate 4 g/ha): 30 | Plant response rating (0 to 100), Chickweed ([6]; Rate 16 g/ha): 80 | Plant response rating, Corn ([7]; 62 g/ha): 50 | Plant response rating, Corn ([7]; 250 g/ha): 60 | Plant response rating (0 to 100), Corn ([7]; Rate 1 g/ha): 20 | Plant response rating (0 to 100), Corn ([7]; Rate 4 g/ha): 30 | Plant response rating (0 to 100), Corn ([7]; Rate 16 g/ha): 40 | Plant response rating (0 to 100), Duck salad [8, 18]: 0 | Plant response rating (0 to 100), Duck salad [8, 19]: 0 | Plant response rating Duck salad ([8]; 62 g/ha): 0 | Plant response rating Duck salad ([8]; 250 g/ha): 90 | Plant response rating, Soybean ([9]; POSTEMERGENCE, Rate 10 g/ha): 6 | Plant response rating, Soybean ([9]; POSTEMERGENCE, Rate 50 g/ha): 9 | Plant response rating, Soybean ([9]; PREEMERGENCE, Rate 50 g/ha): 3 | Plant response rating, Cotton ([10]; 62 g/ha): 100 | Plant response rating, Cotton ([10]; 250 g/ha): 100 | Plant response rating (0 to 100), Cotton ([10]; Rate 1 g/ha): 70 | Plant response rating (0 to 100), Cotton ([10]; Rate 4 g/ha): 100 | Plant response rating (0 to 100), Cotton ([10]; Rate 16 g/ha): 100 | Plant response rating, Cocklebur ([11]; POSTEMERGENCE, Rate 10 g/ha): 9 | Plant response rating, Cocklebur ([11]; POSTEMERGENCE, Rate 50 g/ha): 10 | Plant response rating, Cocklebur ([11]; PREEMERGENCE, Rate 10 g/ha): 0 | Plant response rating, Cocklebur ([11]; PREEMERGENCE, Rate 50 g/ha): 0 | Plant response rating (0 to 100), Rice Japonica [12, 18]: 25 | Plant response rating (0 to 100), Rice Japonica [12, 19]: 60 | Plant response rating Rice Japonica ([12]; 62 g/ha): 65 | Plant response rating Rice Japonica ([12]; 250 g/ha): 90 | Plant response rating (0 to 100), Umbrella sedge [13, 18]: 0 | Plant response rating (0 to 100), Umbrella sedge [13, 19]: 0 | Plant response rating Umbrella sedge ([13]; 62 g/ha): 75 | Plant response rating Umbrella sedge ([13]; 250 g/ha): 95 | Plant response rating, Blackgrass ([14]; 62 g/ha): 60 | Plant response rating, Blackgrass ([14]; 250 g/ha): 60 | Plant response rating (0 to 100), Blackgrass ([14]; Rate 1 g/ha): 20 | Plant response rating (0 to 100), Blackgrass ([14]; Rate 4 g/ha): 30 | Plant response rating (0 to 100), Blackgrass ([14]; Rate 16 g/ha): 50 | Plant response rating, Rice ([15]; POSTEMERGENCE, Rate 10 g/ha): 6 | Plant response rating, Rice ([15]; POSTEMERGENCE, Rate 50 g/ha): 4 | Plant response rating, Rice ([15]; PREEMERGENCE, Rate 50 g/ha): 2 | Plant response rating, Nutsedge ([16]; POSTEMERGENCE, Rate 10 g/ha): 4 | Plant response rating, Nutsedge ([16]; POSTEMERGENCE, Rate 50 g/ha): 5 | Plant response rating, Nutsedge ([16]; PREEMERGENCE, Rate 50 g/ha): 0 | Plant response rating, Giant foxtail ([17]; 62 g/ha): 50 | Plant response rating, Giant foxtail ([17]; 250 g/ha): 50 | Plant response rating (0 to 100), Giant foxtail ([17]; Rate 1 g/ha): 20 | Plant response rating (0 to 100), Giant foxtail ([17]; Rate 4 g/ha): 30 | Plant response rating (0 to 100), Giant foxtail ([17]; Rate 16 g/ha): 50
